Data taken from paper PMC8249783, “A novel multikinase inhibitor SKLB‐YTH‐60 ameliorates inflammation and fibrosis in bleomycin‐induced lung fibrosis mouse models” (Cell Proliferation, 2021).
“And” between values parts separate entries of the source, which are not always exact repeats. Equal entries are not always repeated. Where two headings read alike, the source gives them in different places.

How the values were obtained:
[1] = system: lung MDSCs and macrophages; experiment: Flow cytometry of MDSCs and macrophages in lung tissue of BLM mice; type: in vivo, C57BL/6 mice; settings: 30 mg·kg^−1 i.p.
Experimental: (§1) Male C57BL/6 mice (8‐10 weeks old) were purchased from HFK Bioscience Co. Ltd. All animal experiments were permitted by the Institutional Animal Care and Treatment Committee of Sichuan University in China (New Permit Number: 20190524003). Lung fibrosis was induced using BLM treatment (2 mg·kg^−1). All C57BL/6 mice were divided into five groups (n = 10): a BLM + Nintedanib group (Nintedanib, 30 mg·kg^−1), a BLM + YTH‐60 group (YTH‐60, 15 mg·kg^−1 and 30 mg·kg^−1), a control group (Sham), and a bleomycin group (Vehicle). At the beginning, the mice were anaesthetized using 10% chloral hydrate, dissolved BLM with saline and administered intratracheally. To evaluate the preventive effect, the next day after BLM challenge, YTH‐60 and Nintedanib were administered intraperitoneally daily for 13 days (fibroproliferation) to the mice. All mice were sacrificed 24 hours after the last drug injection, the lungs and other organs were taken for the subsequent analysis. To test the therapeutic effect, after the 7th day of BLM treatment, mice were injected intraperitoneally with YTH‐60, Nintedanib and vehicle daily for 7 consecutive days (fibroproliferation).
We analysed the percentage of MDSCs and macrophages by Flow cytometry (FCM). ^22 Use scissors to cut approximately 30 mg of mouse lung tissues into small pieces and use 5 mL of collagenase‐IV with a concentration of 1 mg·mL^−1, digested at 37°C for at least 1 hour. Centrifuge at 400 g for 5 minutes and discard the supernatant. Then, add another 5 mL PBS to resuspend, after precipitation, taken the supernatant and mixed with the corresponding fluorochromium binding antibody, incubate for 30 minutes in the dark at 4°C (MDSCs with PE^−CD11b^−, FITC^−Gr1^− conjugated dual labelling and macrophages with PE^−F4/80^−, FITC^−CD11b^− conjugated dual labelling). The data were acquired with a FACS Canton II NovoCyte (ACEA).

[2] = system: BLM‐induced pulmonary fibrosis; experiment: BLM‐induced pulmonary fibrosis mouse model, therapeutic treatment (day 7 to 14); type: in vivo, C57BL/6 mice; settings: mice, 30 mg·kg^−1 i.p. from day 7 to 14
Experimental: as §1, with “To test the therapeutic effect, after the 7th day of BLM treatment, mice were injected intraperitoneally with YTH‐60, Nintedanib and vehicle daily for 7 consecutive days (fibroproliferation).” left out
The left lung was detached and immediately fixed in 4% paraformaldehyde for 72 hours and then embed with paraffin wax. […] Ashcroft scoring was used to examine the severity of pulmonary fibrosis. ^20 The image analysis‐based system to quantify collagen deposition was described previously. ^21

[3] = system: infiltrating inflammatory cells in BALF; experiment: Bronchoalveolar lavage fluid cell count in BLM mice; type: in vivo, C57BL/6 mice; settings: 30 mg·kg^−1, day 14
Experimental: as §1
After the animals were anaesthetized, rinsing the lungs with 1 mL of normal saline three times and collected bronchoalveolar lavage fluid. The total living cell count was performed by an ADVIA 2120i.

[4] = Pharmacokinetics study after IV and PO administration to SD rats; type: in vivo
Experimental: The appropriate amount of YTH‐60 was accurately weighed, added to the final volume of 5% DMSO, 40% PEG400 and 55% normal saline, and vortexed or ultrasonicated to fully mix. Then, 0.4 and 2 mg·mL^−1 of clarified dosing solution was used for intravenous administration and oral gavage administration. SD rats were transferred from the Experimental Animal Library (999 M‐017), Shanghai Xipuer‐Beikai Experimental Animal Co. Ltd. After oral, intravenous or intragastric administration, blood was collected by jugular vein or other suitable methods. Approximately 0.20 mL of each sample was collected, in the presence of heparin sodium as an anticoagulant. After the blood samples were collected, they were placed on ice and centrifuged to separate plasma within 2 hours (centrifugation conditions: centrifugal force 6800 g, 6 minutes, 2‐8°C). The collected plasma samples were stored at −80°C before analysis by LC‐MS/MS‐18. After analysis, the remaining plasma samples were stored at −80°C for a period of 1 month.

COc1cc(OC)c(Cl)c(-c2ccc3c(/C=C/c4ccc(N(C)C(=O)CN5CCN(C)CC5)cc4)n[nH]c3c2)c1Cl [YTH‐60, (E)‐N‐(4‐(2‐(6‐(2,6‐dichloro‐3,5‐dimethoxyphenyl)‐1H‐indazol‐3‐yl)vinyl)phenyl)‐N‐methyl‐2‐(4‐methylpiperazin‐1‐yl)acetamide]
percentage of CD11b^+F4/80^+ cells (macrophages) in lung ([1]; day 14, BLM group 19.9%, sham 9.9%): 9.27% | percentage of CD11b^+Gr1^+ cells (MDSCs) in lung ([1]; day 14, BLM group 20.5%, sham 5.14%): 7.07% | therapeutic effect on BLM‐induced lung fibrosis (in words) [2]: good therapeutic effect | infiltrating inflammatory cells in BALF (in words) [3]: significantly reduce the number of infiltrating inflammatory cells | Individual plasma concentration ([4]; IV 2 mg/kg, 0.083 h, individual animals 101, 102, 103, 2 mg/kg): 423.84 ng/mL and 362.43 ng/mL | Individual plasma concentration ([4]; IV 2 mg/kg, 0.25 h, individual animals 101, 102, 103, 2 mg/kg): 168.72 ng/mL and 204.54 ng/mL | Individual plasma concentration ([4]; IV 2 mg/kg, 0.5 h, individual animals 101, 102, 103, 2 mg/kg): 128.91 ng/mL and 163.29 ng/mL | Individual plasma concentration ([4]; IV 2 mg/kg, 1 h, individual animals 101, 102, 103, 2 mg/kg): 107.71 ng/mL and 131.39 ng/mL | Individual plasma concentration ([4]; IV 2 mg/kg, 2 h, individual animals 101, 102, 103, 2 mg/kg): 69.27 ng/mL and 80.59 ng/mL | Individual plasma concentration ([4]; IV 2 mg/kg, 4 h, individual animals 101, 102, 103, 2 mg/kg): 42.78 ng/mL and 48.71 ng/mL | Individual plasma concentration ([4]; IV 2 mg/kg, 6 h, individual animals 101, 102, 103, 2 mg/kg): 34.45 ng/mL and 41.43 ng/mL | Individual plasma concentration ([4]; IV 2 mg/kg, 8 h, individual animals 101, 102, 103, 2 mg/kg): 22.38 ng/mL and 32.19 ng/mL | Individual plasma concentration ([4]; IV 2 mg/kg, 24 h, individual animals 101, 102, 103, 2 mg/kg): 2.68 ng/mL and 3.51 ng/mL | Individual plasma concentration ([4]; PO 20 mg/kg, 0.25 h, individual animals 201, 202, 203, 20 mg/kg): 38.10 ng/mL and 22.94 ng/mL | Individual plasma concentration ([4]; PO 20 mg/kg, 0.5 h, individual animals 201, 202, 203, 20 mg/kg): 25.31 ng/mL and 35.39 ng/mL | Individual plasma concentration ([4]; PO 20 mg/kg, 1 h, individual animals 201, 202, 203, 20 mg/kg): 34.05 ng/mL and 26.26 ng/mL | Individual plasma concentration ([4]; PO 20 mg/kg, 2 h, individual animals 201, 202, 203, 20 mg/kg): 87.47 ng/mL and 35.35 ng/mL and 57.08 ng/mL | Individual plasma concentration ([4]; PO 20 mg/kg, 4 h, individual animals 201, 202, 203, 20 mg/kg): 83.13 ng/mL and 87.88 ng/mL | Individual plasma concentration ([4]; PO 20 mg/kg, 6 h, individual animals 201, 202, 203, 20 mg/kg): 85.16 ng/mL and 114.92 ng/mL | Individual plasma concentration ([4]; PO 20 mg/kg, 8 h, individual animals 201, 202, 203, 20 mg/kg): 79.77 ng/mL and 97.21 ng/mL | Individual plasma concentration ([4]; PO 20 mg/kg, 24 h, individual animals 201, 202, 203, 20 mg/kg): 14.36 ng/mL and 18.49 ng/mL | concentration at 2 h ([4]; SD, rat, plasma, iv, 2 mg/kg, IV 2 mg/kg, 2 h, individual animals 101, 102, 103, read-out: Individual plasma concentration): 68.3 ng/mL | concentration at 2 h ([4]; SD, rat, plasma, iv, 2 mg/kg, IV 2 mg/kg, 2 h, read-out: Mean plasma concentration): 72.7 ng/mL | concentration at 4 h ([4]; SD, rat, plasma, iv, 2 mg/kg, IV 2 mg/kg, 4 h, individual animals 101, 102, 103, read-out: Individual plasma concentration): 41.1 ng/mL | concentration at 4 h ([4]; SD, rat, plasma, iv, 2 mg/kg, IV 2 mg/kg, 4 h, read-out: Mean plasma concentration): 44.2 ng/mL | concentration at 6 h ([4]; SD, rat, plasma, iv, 2 mg/kg, IV 2 mg/kg, 6 h, individual animals 101, 102, 103, read-out: Individual plasma concentration): 36.8 ng/mL | concentration at 6 h ([4]; SD, rat, plasma, iv, 2 mg/kg, IV 2 mg/kg, 6 h, read-out: Mean plasma concentration): 37.6 ng/mL | concentration at 8 h ([4]; SD, rat, plasma, iv, 2 mg/kg, IV 2 mg/kg, 8 h, individual animals 101, 102, 103, read-out: Individual plasma concentration): 20.4 ng/mL | AUC ([4]; SD, rat, plasma, iv, 2 mg/kg, SD rats, i.v. 2 mg·kg^−1, read-out: AUC0‐t): 773 ± 99.4 ng·h/mL | AUC ([4]; SD, rat, plasma, iv, 2 mg/kg, SD rats, i.v. 2 mg·kg^−1, read-out: AUC0‐∞): 793 ± 104 ng·h/mL | MRT ([4]; SD, rat, plasma, iv, 2 mg/kg, SD rats, i.v. 2 mg·kg^−1, read-out: MRT0‐t): 4.5 ± 0.28 h | MRT ([4]; SD, rat, plasma, iv, 2 mg/kg, SD rats, i.v. 2 mg·kg^−1, read-out: MRT0‐∞): 5.16 ± 0.36 h | AUC ([4]; SD, rat, plasma, iv, 2 mg·kg^−1, SD rats, after an IV dose, read-out: mean AUC(0‐t)): 773 ng·h/mL | concentration at 2 h ([4]; SD, rat, plasma, po, 20 mg/kg, PO 20 mg/kg, 2 h, read-out: Mean plasma concentration): 60 ng/mL | concentration at 4 h ([4]; SD, rat, plasma, po, 20 mg/kg, PO 20 mg/kg, 4 h, individual animals 201, 202, 203, read-out: Individual plasma concentration): 84.7 ng/mL | concentration at 4 h ([4]; SD, rat, plasma, po, 20 mg/kg, PO 20 mg/kg, 4 h, read-out: Mean plasma concentration): 85.2 ng/mL
